The source of these data is publication PMC7099630 (Bioanalysis, 2016).

SMILES strings stand for the structures.

Data set [1] is described as follows: Stability of chloroquine in miniature pig plasma QC samples under different storage conditions. It counts as in vitro ADME. The settings on record: miniature pig plasma (spiked QC samples), plasma QC standing prior to preparation, read-out: Benchtop stability (8 h), Recovery (mean ± SD, %).
A short description of data set [2]: PK study in Wuzhishan miniature pigs after a single oral dose, plasma by HILIC-MS/MS. It counts as in vivo, Wuzhishan miniature pig. The settings on record: average, single oral dose 0.2 g. As to the method: Two ordinary grade, healthy, Wuzhishan miniature pig (6–8 months old, 7–9 kg) were purchased from Pearl Laboratory Animal Sci. & Tech. Co., Ltd (Dongguan, China) and maintained on standard food and water. The pigs were housed in individual cages and identified by ear tags. […] Blood samples (1.5 ml) were collected in heparinized tubes via the precaval or pelvic vein before medication and 0.5, 1, 2, 4, 6, 8, 12, 24, 36, 48, 72, 96 and 120 h after drug administration. All blood samples were immediately centrifuged at 2000 × g for 15 min (Centrifuge 5418, Eppendorf) and then stored at −70°C before analysis. The maximum plasma concentration (Cmax) and time of occurrence (tmax) were read directly from the concentration-time curve. Other PK parameters were calculated with DAS 3.2.4 software, using a noncompartmental model.

Data set [3] is described as follows: Stability of chloroquine in miniature pig plasma QC samples under different storage conditions. It counts as in vitro ADME. As to the method:
Mimic pig plasma samples at LQC and HQC levels were analyzed along with freshly spiked calibration standards to obtain calculated concentrations.
Benchtop stability was evaluated by allowing QC samples to stand for 6 h prior to preparation. Unextracted QC samples were stored at -20°C for 40 days before extraction to test long-term stability. To analyze freeze–thaw stability, QC samples were stored at -20°C and then allowed to thaw to room temperature for three cycles. Processed QC samples were allowed to stand in the autosampler for 24 h before analysis to determine whether an occasional delay in injection, or reinjection of extracted samples, would lead to degradation.

Data set [4] can be described thus: Stock solution stability of chloroquine. It counts as physicochemical. The settings on record: 40 days at -20°C vs freshly prepared, read-out: Solution stability (40 day), Recovery (mean ± SD, %).
Where [5] appears, read: healthy miniature pigs, noncompartmental model.

For orientation: AUC(0-inf) means the area under the concentration-time curve extrapolated to infinity. Lower therefore signals less exposure. What is called Cmax is the maximum level reached in the sampled fluid or tissue. For orientation: Tmax means the time from dosing to the highest level. What is called CL/F is the apparent clearance, not corrected for the fraction that reaches the circulation. Regarding `CCN(CC)CCCC(C)Nc1ccnc2cc(Cl)ccc12` (stereo not shown) [chloroquine, N’-(7-chloro-4-quinolyl)-N,N-diethyl-pentane-1,4-diamine], the recovery at 8 h, 75 ng/ml in data set [1] (HQC (75 ng/ml)) came out at 103.5 ± 1%. The recovery at 8 h, 3 ng/ml in data set [1] (LQC (3 ng/ml)) amounted to 104 ± 1.33%. Also, the AUC(0-inf) in data set [2] (Wuzhishan miniature pig, pig, plasma, healthy miniature pigs, noncompartmental model) turned out to be 380 ng·h/mL. The half-life in data set [2] (Wuzhishan miniature pig, pig, plasma, healthy miniature pigs, noncompartmental model, read-out: elimination t1/2 (converted)) is 16.9 h. In addition, the Cmax in data set [2] (Wuzhishan miniature pig, pig, healthy miniature pigs (two animals), plasma) amounted to 15 ng/mL. For the same molecule, the time of peak concentration (Tmax) in data set [2] (Wuzhishan miniature pig, pig, healthy miniature pigs, plasma) was found to be 3 h. In data set [2] (setting [5]), the CL/F stood at 54.15 L/h and the V/F was determined as 1543.82 L. Moreover, the “stability of prepared samples after storage in the autosampler” value in data set [3] (24 h in autosampler) is “stable”. In data set [3] (miniature pig plasma), the “time stable during bench top preparation” value was “at least 6 h” and the “time stable on storage at −20°C” value is on record as “at least 40 days”. In data set [3] (miniature pig, miniature pig plasma (spiked QC samples), HQC (75 ng/ml), -20°C to room temperature, three cycles, read-out: Freeze–thaw stability (3 cycles), Recovery (mean ± SD, %)), the recovery at 75 ng/ml turned out to be 106 ± 1.07%. In addition, the recovery at 40 day, 75 ng/ml in data set [3] (miniature pig, miniature pig plasma (spiked QC samples), HQC (75 ng/ml), unextracted plasma QC stored at -20°C for 40 days, read-out: Long-term stability (40 day), Recovery (mean ± SD, %)) was 104.3 ± 1.04%. The recovery at 3 ng/ml in data set [3] (miniature pig, miniature pig plasma (spiked QC samples), LQC (3 ng/ml), -20°C to room temperature, three cycles, read-out: Freeze–thaw stability (3 cycles), Recovery (mean ± SD, %)) stood at 106 ± 9.74%. For the same molecule, in data set [3] (miniature pig, miniature pig plasma (spiked QC samples), LQC (3 ng/ml), unextracted plasma QC stored at -20°C for 40 days, read-out: Long-term stability (40 day), Recovery (mean ± SD, %)), the recovery at 40 day, 3 ng/ml worked out at 106 ± 3.35%. In addition, the recovery at 24 h, 75 ng/ml in data set [3] (miniature pig, HQC (75 ng/ml), processed samples in autosampler for 24 h, read-out: Processed stability (24 h), Recovery (mean ± SD, %)) was 105.7 ± 0.34%. Further, in data set [3] (miniature pig, LQC (3 ng/ml), processed samples in autosampler for 24 h, read-out: Processed stability (24 h), Recovery (mean ± SD, %)), the recovery at 24 h, 3 ng/ml came out at 98.9 ± 1.08%. Moreover, the recovery at 40 day, 75 ng/ml in data set [4] (HQC (75 ng/ml)) stood at 103 ± 2.46%. The recovery at 40 day, 3 ng/ml in data set [4] (LQC (3 ng/ml)) was found to be 102 ± 6.75%.
